Read-outs that look alike come from different tables or passages of the source.
What was measured:
[1] = system: CD34+-derived cells (HSC, MPP, CPP); experiment: AHR antagonist dose-response on HSC/P subpopulation number; assay type: cell-based, human
Method: Freshly purified bone marrow-derived human CD34^+ cells were obtained from either the Penn Xenograft Core Facility or AllCells (Emeryville, Calif.). Cells from at least 20 different donors were used in this study. Purity of the samples (>98%) was confirmed by flow cytometry with monoclonal antibody against human CD34. All experiments were performed in HSC expansion media (StemLine, Sigma) supplemented with 1× antibiotics, 20% BIT 9500 Serum Substitute (StemCell Technologies), 2 mM […] (Gibco) and the following human recombinant cytokines: SCF (100 ng/ml) and Tpo (100 ng/ml). In some occasions, the media was also supplemented by G-CSF (100 ng/ml), epidermal growth factor (EGF, 100 ng/ml), transforming growth factor beta 1 (TGF-beta1, 100 ng/ml), erythropoietin (EPO, 1 U/ml) and interleukin-3 (IL-3, 10 ng/ml). All cytokines were purchased from R&D Systems. After cells were cultured for 4 days, they were treated with different doses of cellular contractility inhibitors, including (±)-Blebbistatin (Bleb) (EMD Biosciences) and/or CH-223191 (Sigma) for indicated durations of up to 3 days. Cells were cultured at 37° C. in 5% CO2.
Surface marker analysis for HSC/Ps was done on either a LSR II flow cytometer or FACSCalibur (Becton Dickinson). […] Cells isolated from the bone marrow stained for 1 hr with APC anti-mouse CD47 (miap301, AbD Serotec), FITC anti-human CD47 (BD Biosciences), and PE anti-human CD11b, PE anti-human CD19 (both from BD Biosciences), or PE anti-human Glycophorin A (Invitrogen). Plts and RBCs were analyzed by staining with PE anti-mouse CD41 (eBioscience) and FITC anti-human CD41 (eBioscience) for 20 min, followed by analysis on FACSCalibur on log forward and side scatter scales.

CD34+ cells = conditions: data from Boitano et al. (2010), cited from earlier work; for EC50: fitted, read-out: CD34+ cell number EC50
CD34+-derived cells = experiment: Apoptosis by cleaved caspase-3 intracellular flow cytometry and Annexin-V; assay type: cell-based, human; conditions: G-CSF 100 ng/ml; CH-223191 500 nM (4n fraction)
Method: (§1) Cells were fixed with 4% paraformaldehyde in PBS for 10 min, washed with PBS and resuspended in 0.1% saponin in HBSS (staining medium). The samples were then stained with antibodies against cytoplasmic antigens, including NMM-IIA (Sigma), NMM-IIB, phospho-NMM-IIA and caspase-3 (all from Cell Signaling Technology) for 30 min at room temperature. In some cases, cells were concurrently stained with PE anti-CD34 or anti-human CD38 for subpopulation analysis. Cells were then washed and stained with anti-rabbit or mouse secondary antibodies conjugated with Alexa 647 (Invitrogen) for 30 min, followed by analysis on FACSCalibur.

[2] = system: BM CD34+-derived cells (CD41+ MK); experiment: Ploidy analysis of CD34+-derived cells treated with contractility inhibitors (flow cytometry); assay type: cell-based, human; conditions: for EC50: read-out: MK polyploid cell number EC50
Method: (§2) Fresh purified bone marrow (BM)-derived humanCD34^+ cells were obtained from either the Penn Xenograft Core Facility or AllCells. Cells from at least 10 different donors were used in this study. Purity of the samples (>98%) was confirmed by flow cytometry with monoclonal antibody against human CD34 conjugated to phycoerythrin (PE). All experiments were performed in hematopoietic stem cell (HSC) expansion media (StemLine-II; Sigma) supplemented with 1× antibiotics, and the following human recombinant cytokines SCF (100 ng/mL) and Tpo (100 ng/mL). In some occasions, the media was also supplemented by G-CSF (100 ng/mL). All cytokines were purchased from R&D Systems. After cells were cultured for 4 days, they were treated with different doses of cellular contractility inhibitors, including (±)-blebbistatin (EMDBiosciences), reversine, ML-7, and Y-27632 (Sigma) for indicated durations of up to 3 days. Unfortunately, longer exposure to drug proves toxic even to polyploidy cells under the present culture conditions. Cells were then resuspended in PBS/2% FBS medium and subjected to ploidy analysis: cells were stained with CD41-FITC (BD Biosciences) at room temperature for 30 min, followed by Hoechst 33342 at 37° C. for 30 min. Then cells were stained with Annexin-V-PE (BD Biosciences) in the Annexin-V staining medium, followed by addition of 7-AAD. Stained cells were subjected to flow cytometric analysis (LSR-II; BD Biosciences): only viable cells (7-AAD^− and Hoechst 33342^+) were analyzed for ploidy. Cells with the DNA content of 8 N or higher were considered polyploid. To quantify absolute number of polyploid cells, viable cell number was counted before flow cytometry by Trypan blue exclusion, and this number was multiplied by percentages of each DNA compartment and subpopulations. Each multiplied number was then normalized by initial cell input number before drug treatment in culture.

αIIbβ3 = molecular target: T1, αIIbβ3 (Homo sapiens, UniProt P05106+P08514); experiment: Platelet activation assay, PAC-1 binding; assay type: cell-based; conditions: 10 μM, thrombin 1 U/mL
T1 construct: endogenous in cells; host or cells: platelet-like fragments from megakaryocytes cultured from human bone-marrow CD34+ cells
Method: For platelet-activation assays, platelet-sided fraction isolated from either MK culture or NSG blood was resuspended in Tyrode's buffer supplemented with Mg^2+ and Ca^2+, and incubated with indicated agonists for 15 min at 37° C., followed by staining with FITC-conjugated anti-human P-selectin or PAC-1 antibody (BD Bioscience), APC-conjugated anti-human CD41, and in the case of xenograft samples, PE-conjugated anti-mouse CD41 for 15 min at room temperature, followed by fixation with 1.5% paraformaldehyde. Antibody-stained samples were then analyzed by flow cytometry. Platelet number was evaluated by mixing each sample with a defined number (˜10,000 beads per sample) of APC-conjugated beads (BD Bioscience). The number of platelets per sample was evaluated by: number of CD41^+ events/number of APC-bead events multiplied by total known number of APC-bead added per sample.

NMM-IIA pS1943 = experiment: pS1943 of NMM-IIA by phospho-specific flow cytometry; assay type: cell-based, human; conditions: under cytokine stimulation (SCF and Tpo)
Method: as §1

CD34+-derived MKs = experiment: Polyploid MK numbers on collagen-coated gels of different elasticity; assay type: cell-based, human
Method: as §2, with “Cells were then resuspended in PBS/2% FBS medium and subjected to ploidy analysis: cells were stained with CD41-FITC (BD Biosciences) at room temperature for 30 min, followed by Hoechst 33342 at 37° C. for 30 min. Then cells were stained with Annexin-V-PE (BD Biosciences) in the Annexin-V staining medium, followed by addition of 7-AAD.” left out, “Cells with the DNA content of 8 N or higher were considered polyploid.” left out, “Each multiplied number was then normalized by initial cell input number before drug treatment in culture.” left out

[3] = Homo sapiens, dose-response, n≥3 donors

T1 sequence (P08514 32-887 limits assumed): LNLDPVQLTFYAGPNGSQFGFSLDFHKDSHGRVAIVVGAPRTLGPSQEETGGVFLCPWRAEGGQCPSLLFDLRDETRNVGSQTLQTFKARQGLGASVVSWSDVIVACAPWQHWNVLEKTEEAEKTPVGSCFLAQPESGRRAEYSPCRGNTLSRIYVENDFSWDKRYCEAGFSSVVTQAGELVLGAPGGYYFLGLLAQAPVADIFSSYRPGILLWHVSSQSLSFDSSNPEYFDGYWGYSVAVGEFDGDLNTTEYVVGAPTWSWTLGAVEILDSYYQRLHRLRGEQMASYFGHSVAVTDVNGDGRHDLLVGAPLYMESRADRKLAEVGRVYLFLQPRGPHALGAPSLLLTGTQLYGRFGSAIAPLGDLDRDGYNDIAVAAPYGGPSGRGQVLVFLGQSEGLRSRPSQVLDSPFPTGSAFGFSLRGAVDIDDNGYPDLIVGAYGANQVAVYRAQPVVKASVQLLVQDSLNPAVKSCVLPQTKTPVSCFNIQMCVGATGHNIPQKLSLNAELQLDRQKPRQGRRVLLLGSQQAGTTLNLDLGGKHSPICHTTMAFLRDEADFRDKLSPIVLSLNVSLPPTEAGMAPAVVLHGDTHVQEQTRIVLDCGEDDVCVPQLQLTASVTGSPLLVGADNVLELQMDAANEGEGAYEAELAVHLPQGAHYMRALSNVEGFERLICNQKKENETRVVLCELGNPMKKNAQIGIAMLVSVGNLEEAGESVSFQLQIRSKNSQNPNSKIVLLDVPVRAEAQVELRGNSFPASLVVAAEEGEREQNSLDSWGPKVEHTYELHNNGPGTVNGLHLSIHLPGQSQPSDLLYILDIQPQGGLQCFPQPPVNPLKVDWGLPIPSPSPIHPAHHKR
T1 sequence (P08514 891-1039 partner limits assumed): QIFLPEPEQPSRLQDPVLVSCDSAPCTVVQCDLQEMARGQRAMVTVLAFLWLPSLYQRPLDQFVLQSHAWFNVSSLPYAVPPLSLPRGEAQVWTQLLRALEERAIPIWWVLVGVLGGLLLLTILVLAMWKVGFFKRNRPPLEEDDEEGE
T1 sequence (P05106 27-788): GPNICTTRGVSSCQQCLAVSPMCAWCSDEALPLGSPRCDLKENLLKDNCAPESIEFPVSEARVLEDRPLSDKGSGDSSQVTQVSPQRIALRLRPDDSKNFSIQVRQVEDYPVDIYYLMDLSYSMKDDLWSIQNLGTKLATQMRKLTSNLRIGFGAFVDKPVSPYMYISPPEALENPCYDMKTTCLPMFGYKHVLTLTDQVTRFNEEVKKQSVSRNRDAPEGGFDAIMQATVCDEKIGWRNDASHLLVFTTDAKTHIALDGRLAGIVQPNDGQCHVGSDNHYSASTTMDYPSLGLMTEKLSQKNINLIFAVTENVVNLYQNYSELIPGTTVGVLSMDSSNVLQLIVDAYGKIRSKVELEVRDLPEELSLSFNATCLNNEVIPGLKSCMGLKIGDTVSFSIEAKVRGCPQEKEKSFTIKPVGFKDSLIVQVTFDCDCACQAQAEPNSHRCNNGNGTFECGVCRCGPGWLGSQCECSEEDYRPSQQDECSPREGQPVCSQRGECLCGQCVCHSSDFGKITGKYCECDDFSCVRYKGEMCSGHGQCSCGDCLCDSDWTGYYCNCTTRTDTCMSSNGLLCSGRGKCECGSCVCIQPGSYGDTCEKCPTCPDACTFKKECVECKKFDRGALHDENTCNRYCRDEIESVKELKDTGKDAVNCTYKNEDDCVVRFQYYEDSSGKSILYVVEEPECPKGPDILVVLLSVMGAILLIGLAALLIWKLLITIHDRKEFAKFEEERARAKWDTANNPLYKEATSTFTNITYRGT

Q: With Cc1ccccc1N=Nc1ccc(NC(=O)c2ccnn2C)c(C)c1 [CH-223191] as the compound, how does the HSC/P ratio ([1]; dual drug treatment with Bleb) read?
A: The HSC/P ratio was “almost doubled”.

Q: And the EC50 ([1]; untreated and Bleb, for both, read-out: CPP number EC50)?
A: The EC50 was 750 nM.

Q: And the EC50 ([1]; untreated and Bleb, for both, read-out: MPP number EC50)?
A: Its EC50 is 114 nM.

Q: What about the EC50 ([1]; with 20 μM Bleb, 3 days, read-out: HSC number EC50) of the same compound?
A: The EC50 was 211 nM.

Q: And the EC50 ([1]; without Bleb, 3 days, read-out: HSC number EC50)?
A: Its EC50 is 158 nM.

Q: What about the EC50 (CD34+ cells) of the same compound?
A: Its EC50 is 74 nM.

Q: What about the “viability of untreated CD34+ and CD34− cells” value (CD34+-derived cells) of the same compound?
A: The value was “improves the viability”.

Q: Which IC50 ([2]; 2 N, read-out: MK cell number in 2 N IC50) does the source give for O=S(=O)(c1cccc2c(I)cccc12)N1CCCNCC1 [ML7, ML-7] here?
A: The IC50 was 500 nM.

Q: What about the IC50 ([2]; 4 N, read-out: MK cell number in 4 N IC50) of the same compound?
A: The IC50 was 500 nM.

Q: And the IC50 ([2]; dose-response, n≥3 donors, read-out: MK polyploid cell number IC50)?
A: Its IC50 is 1040 nM.

Q: For CC(C)n1cnc2c(NCCc3ccc(O)cc3)nc(-c3csc4ccccc34)nc21 [SR1], which EC50 (CD34+ cells) is on record?
A: The EC50 was 47.4 nM.

Q: With CCCCS(=O)(=O)N[C@@H](Cc1ccc(OCCCCC2CCNCC2)cc1)C(=O)O [Tirofiban] as the compound, how does the “inhibition of agonist-induced PAC-1 binding” value (αIIbβ3) read?
A: Its value is “inhibits as expected”.

Q: With C[C@@H](N)[C@H]1CC[C@H](C(=O)Nc2ccncc2)CC1 [Y-27632] as the compound, how does the EC50 [2, 3] read?
A: Its EC50 is 140 nM.

Q: For O=c1cc(-c2ccccc2)oc2c1ccc1ccccc12 [a-napthoflavone, α-napthoflavone], which EC50 (CD34+ cells) is on record?
A: Its EC50 is 177 nM.

Q: And the “concentration showing toxic effect” value (CD34+ cells)?
A: Its value is no less than 1000 nM.

Q: For c1nc2nc(Nc3ccc(N4CCOCC4)cc3)nc(NC3CCCCC3)c2[nH]1 [reversine], which EC50 [2, 3] is on record?
A: Its EC50 is 500 nM.

Q: What about the IC50 ([2]; Homo sapiens, read-out: MK cell number in 2 N IC50) of the same compound?
A: The IC50 was 260 nM.

Q: What about the IC50 ([2]; Homo sapiens, read-out: MK cell number in 4 N IC50) of the same compound?
A: Its IC50 is 500 nM.

Q: For “EGF: epidermal growth factor, human recombinant cytokine (NSDSECPLSHDGYCLHDGVCMYIEALDKYACNCVVGYIGERCQYRDLKWWELR; UniProt P01133 971-1023, looked up)”, which “effect on pS1943 level” value (NMM-IIA pS1943) is on record?
A: The value was “does not show a significant effect”.

Q: For “TGF-beta 1: transforming growth factor beta 1, human recombinant cytokine”, which “effect on pS1943 level” value (NMM-IIA pS1943) is on record?
A: The value was “inhibits the reduction of pS1943 level”.

Q: For collagen, which “polyploid MK numbers on stiff gels, IC50 in collagen concentration” value (CD34+-derived MKs; blebbistatin-treated cells) is on record?
A: Its value is roughly 0.3 ng/cm^2.

Q: And the “polyploid MK numbers on stiff gels, EC50 in collagen concentration” value (CD34+-derived MKs; untreated cells)?
A: Its value is roughly 200 ng/cm^2.

— patent US9920295B2, “Bioreactor for isolation of rare cells and methods of use” (The Trustees of the University of Pennsylvania, priority 2012, dated 2018)
